Measurements: patent US20240389599A1, “Antimicrobial Material Comprising a Tetraalkylphosphonium Ionic Liquid and Metal Nanoparticles” (University of Windsor, priority 2023, published 2024)

Assays:
Format in all cases: cell-based
E. coli = assay: resazurin-based MIC/MBC screen of the TAPILs
Description: (§1) The MIC evaluation of the three TAPILs is shown with E. coli (a) and S. aureus (b) as the microorganism under study, using resazurin as an indicator of bacterial viability. The numbers on the right correspond to the TAPILs—i.e. “1” stands for TAPIL-1. The MIC and MBC values (c) are shown for the three TAPILs deployed against E. coli and S. aureus as representative microorganisms.
(§2) The three TAPILs were screened against E. coli and S. aureus according to standard procedures (FIG. 2). The bacteria were selected as they are the representative strains (gram negative and positive, respectively) used for European Union regulations in the evaluation of disinfectants. A standard resazurin-based assay was employed: A blue well indicates non-viable bacteria, while a pink one indicates bacterial viability. The MIC and the MBC values are summarized.

S. aureus = assay: resazurin-based MIC/MBC screen of the TAPILs; conditions: resazurin assay
Description: as §1, §2

[1] = MIC/MBC of TAPIL-2 monitored upon ambient storage open to the atmosphere; conditions: 3 weeks ambient storage open to the atmosphere
Description: The presence of one longer alkyl chain on the central phosphorus is believed to be preferred for anti-microbial activity since symmetrical TAPILs with four identical alkyl substituents around the phosphorus atom are likely to interact less strongly with the cell membrane to induce cell death. The MIC/MBC values of TAPIL-2 were monitored over a period of 3 weeks upon ambient storage open to the atmosphere. No change in its antimicrobial activity was detected.

CCCCCCCCCCCCCC[P+](CCCCCC)(CCCCCC)CCCCCC.O=S(=O)([N-]S(=O)(=O)C(F)(F)F)C(F)(F)F [TAPIL-3]
concentration up to which no anti-bacterial effects are shown (MIC/MBC) (E. coli; resazurin assay): > 2000 µg/mL | concentration up to which no anti-bacterial effects are shown (MIC/MBC) (S. aureus): > 2000 µg/mL

CCCCCCCC[P+](CCCCCC)(CCCCCC)CCCCCC.[Cl-] [TAPIL-2]
Minimum Bactericidal Concentration (MBC) (E. coli): < 65 µg/mL | change in antimicrobial activity (MIC/MBC values) [1]: No change

CCCCCCCCCCCCCC[P+](CCCCCC)(CCCCCC)CCCCCC.[Cl-] [TAPIL-1]
antibacterial properties (in words) (E. coli; resazurin assay): bacteriostatic properties at intermediate concentrations | antibacterial properties (in words) (S. aureus): bacteriostatic properties at intermediate concentrations
